Experiments:
[1] = system: IgE antibodies in sera from birch pollen allergic patients; test: ELISA detection of peptide- and rBet v 1-specific IgE antibodies; format: binding, human
Summary of the method: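 Sera from 60 birch pollen allergic patients (rhinoconjunctivitis and/or asthma; skin prick and CAP RAST characterized) plus one non-atopic individual, diluted 1:3, incubated overnight at 4 °C on coated plates. Bound IgE detected with 1:1000 alkaline-phosphatase-coupled mouse anti-human IgE.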

[2] = system: birch pollen allergic patients; test: Skin prick testing of allergic patients; format: in vivo, human; settings: 100 μg/ml
Procedure: SPTs were performed on the individuals forearms as described ([…]. et al. (1997) J. Clin Invest. 99, 1673-168; Dreborg S: (1989) J. Am. Acad. DerMatol. 21, 820-821). […] In addition standardized skin prick solutions (birch pollen extract and histamine) (Allergopharma, Reinbek, Germany) were tested. Reactions were recorded 20 minutes after SPT by photography and by transferring the ballpoint pen-surrounded wheal area with a scotch tape to paper.

Sequence: MGVFNYETETTSVIPAARLFKAFIC [Peptide P1, Bet v 1-derived synthetic peptide, position aa 1-24, one cysteine added]
- IgE (OD) ([1]; serum of NHS, non-allergic control individual): — (Dashes indicate reactivities below the cut-off level (OD=0.050))
- IgE (OD) ([1]; serum of patient 1): — (Dashes indicate reactivities below the cut-off level (OD=0.050))
- IgE (OD) ([1]; serum of patient 2): — (Dashes indicate reactivities below the cut-off level (OD=0.050))
- IgE (OD) ([1]; serum of patient 3): — (Dashes indicate reactivities below the cut-off level (OD=0.050))
- IgE (OD) ([1]; serum of patient 4): — (Dashes indicate reactivities below the cut-off level (OD=0.050))
- IgE (OD) ([1]; serum of patient 5): — (Dashes indicate reactivities below the cut-off level (OD=0.050))
- IgE (OD) ([1]; serum of patient 6): — (Dashes indicate reactivities below the cut-off level (OD=0.050))
- IgE (OD) ([1]; serum of patient 7): — (Dashes indicate reactivities below the cut-off level (OD=0.050))
- IgE (OD) ([1]; serum of patient 8): — (Dashes indicate reactivities below the cut-off level (OD=0.050))
- IgE (OD) ([1]; serum of patient 9): — (Dashes indicate reactivities below the cut-off level (OD=0.050))
- IgE (OD) ([1]; serum of patient 10): — (Dashes indicate reactivities below the cut-off level (OD=0.050))
- IgE (OD) ([1]; serum of patient 11): — (Dashes indicate reactivities below the cut-off level (OD=0.050))
- IgE (OD) ([1]; serum of patient 12): — (Dashes indicate reactivities below the cut-off level (OD=0.050))
- IgE (OD) ([1]; serum of patient 13): — (Dashes indicate reactivities below the cut-off level (OD=0.050))
- IgE (OD) ([1]; serum of patient 14): — (Dashes indicate reactivities below the cut-off level (OD=0.050))
- IgE (OD) ([1]; serum of patient 15): — (Dashes indicate reactivities below the cut-off level (OD=0.050))
- IgE (OD) ([1]; serum of patient 16): — (Dashes indicate reactivities below the cut-off level (OD=0.050))
- IgE (OD) ([1]; serum of patient 17): — (Dashes indicate reactivities below the cut-off level (OD=0.050))
- IgE (OD) ([1]; serum of patient 18): — (Dashes indicate reactivities below the cut-off level (OD=0.050))
- IgE (OD) ([1]; serum of patient 19): — (Dashes indicate reactivities below the cut-off level (OD=0.050))
- IgE (OD) ([1]; serum of patient 20): — (Dashes indicate reactivities below the cut-off level (OD=0.050))
- IgE (OD) ([1]; serum of patient 21): — (Dashes indicate reactivities below the cut-off level (OD=0.050))
- IgE (OD) ([1]; serum of patient 22): — (Dashes indicate reactivities below the cut-off level (OD=0.050))
- IgE (OD) ([1]; serum of patient 23): — (Dashes indicate reactivities below the cut-off level (OD=0.050))
- IgE (OD) ([1]; serum of patient 24): — (Dashes indicate reactivities below the cut-off level (OD=0.050))
- IgE (OD) ([1]; serum of patient 25): — (Dashes indicate reactivities below the cut-off level (OD=0.050))
- IgE (OD) ([1]; serum of patient 26): — (Dashes indicate reactivities below the cut-off level (OD=0.050))
- IgE (OD) ([1]; serum of patient 27): — (Dashes indicate reactivities below the cut-off level (OD=0.050))
- IgE (OD) ([1]; serum of patient 28): — (Dashes indicate reactivities below the cut-off level (OD=0.050))
- IgE (OD) ([1]; serum of patient 29): — (Dashes indicate reactivities below the cut-off level (OD=0.050))
- IgE (OD) ([1]; serum of patient 30): — (Dashes indicate reactivities below the cut-off level (OD=0.050))
- IgE (OD) ([1]; serum of patient 31): — (Dashes indicate reactivities below the cut-off level (OD=0.050))
- IgE (OD) ([1]; serum of patient 32): — (Dashes indicate reactivities below the cut-off level (OD=0.050))
- IgE (OD) ([1]; serum of patient 33): — (Dashes indicate reactivities below the cut-off level (OD=0.050))
- IgE (OD) ([1]; serum of patient 34): — (Dashes indicate reactivities below the cut-off level (OD=0.050))
- IgE (OD) ([1]; serum of patient 35): — (Dashes indicate reactivities below the cut-off level (OD=0.050))
- IgE (OD) ([1]; serum of patient 36): — (Dashes indicate reactivities below the cut-off level (OD=0.050))
- IgE (OD) ([1]; serum of patient 37): — (Dashes indicate reactivities below the cut-off level (OD=0.050))
- IgE (OD) ([1]; serum of patient 38): — (Dashes indicate reactivities below the cut-off level (OD=0.050))
- IgE (OD) ([1]; serum of patient 39): — (Dashes indicate reactivities below the cut-off level (OD=0.050))
- IgE (OD) ([1]; serum of patient 40): — (Dashes indicate reactivities below the cut-off level (OD=0.050))
- IgE (OD) ([1]; serum of patient 41): — (Dashes indicate reactivities below the cut-off level (OD=0.050))
- IgE (OD) ([1]; serum of patient 42): — (Dashes indicate reactivities below the cut-off level (OD=0.050))
- IgE (OD) ([1]; serum of patient 43): — (Dashes indicate reactivities below the cut-off level (OD=0.050))
- IgE (OD) ([1]; serum of patient 44): — (Dashes indicate reactivities below the cut-off level (OD=0.050))
- IgE (OD) ([1]; serum of patient 45): — (Dashes indicate reactivities below the cut-off level (OD=0.050))
- IgE (OD) ([1]; serum of patient 46): — (Dashes indicate reactivities below the cut-off level (OD=0.050))
- IgE (OD) ([1]; serum of patient 47): — (Dashes indicate reactivities below the cut-off level (OD=0.050))
- IgE (OD) ([1]; serum of patient 48): — (Dashes indicate reactivities below the cut-off level (OD=0.050))
- IgE (OD) ([1]; serum of patient 49): — (Dashes indicate reactivities below the cut-off level (OD=0.050))
- IgE (OD) ([1]; serum of patient 50): — (Dashes indicate reactivities below the cut-off level (OD=0.050))
- IgE (OD) ([1]; serum of patient 51): — (Dashes indicate reactivities below the cut-off level (OD=0.050))
- IgE (OD) ([1]; serum of patient 52): — (Dashes indicate reactivities below the cut-off level (OD=0.050))
- IgE (OD) ([1]; serum of patient 53): — (Dashes indicate reactivities below the cut-off level (OD=0.050))
- IgE (OD) ([1]; serum of patient 54): — (Dashes indicate reactivities below the cut-off level (OD=0.050))
- IgE (OD) ([1]; serum of patient 55): — (Dashes indicate reactivities below the cut-off level (OD=0.050))
- IgE (OD) ([1]; serum of patient 56): — (Dashes indicate reactivities below the cut-off level (OD=0.050))
- IgE (OD) ([1]; serum of patient 57): — (Dashes indicate reactivities below the cut-off level (OD=0.050))
- IgE (OD) ([1]; serum of patient 58): — (Dashes indicate reactivities below the cut-off level (OD=0.050))
- IgE (OD) ([1]; serum of patient 59): — (Dashes indicate reactivities below the cut-off level (OD=0.050))
- IgE (OD) ([1]; serum of patient 60): — (Dashes indicate reactivities below the cut-off level (OD=0.050))
- mean wheal diameter ([2]; individual 1): 0 mm
- mean wheal diameter ([2]; individual 2): 0 mm
- mean wheal diameter ([2]; individual 3): 0 mm
- mean wheal diameter ([2]; individual 4): 0 mm
- mean wheal diameter ([2]; individual 5): 0 mm
- mean wheal diameter ([2]; individual 6 (allergic, without birch pollen allergy)): 0 mm

From patent US7244431B2, “Allergy vaccines and their preparation” (priority 2000, dated 2007)
